According to US7326700B2, “Cyclohexenyl phenyl carboxamides tocolytic oxytocin receptor antagonists” (Wyeth, priority 2001, dated 2008):
Counter-ions that a name gives are not always drawn.

The compounds below were run against T1, human vasopressin V2 receptor subtype (Homo sapiens, UniProt P30518) (assay: Vasopressin binding in CHO cell membranes expressing human vasopressin V2 subtype receptors ([3H]arginine vasopressin radioligand binding)). Settings: 100 nM.
T1 construct: host or cells: CHO cells, stably transfected (pZeoSV vector)
T1 sequence (P30518 whole entry): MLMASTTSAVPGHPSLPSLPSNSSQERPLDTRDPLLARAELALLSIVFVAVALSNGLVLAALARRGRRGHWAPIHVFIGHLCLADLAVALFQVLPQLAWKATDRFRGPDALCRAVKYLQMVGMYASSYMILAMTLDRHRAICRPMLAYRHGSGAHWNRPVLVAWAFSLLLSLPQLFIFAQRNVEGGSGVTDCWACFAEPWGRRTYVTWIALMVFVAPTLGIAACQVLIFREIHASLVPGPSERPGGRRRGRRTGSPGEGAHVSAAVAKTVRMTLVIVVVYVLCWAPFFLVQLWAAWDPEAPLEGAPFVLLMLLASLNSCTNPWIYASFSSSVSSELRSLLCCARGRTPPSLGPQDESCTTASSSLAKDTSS
Description: Chinese Hamster Ovary (CHO) cells stably transfected with the human V2 subtype receptors were obtained from M. Thibonnier, Case Western Reserve University School of Medicine, Cleveland, Ohio.
CHO cells transfected with the human vasopressin V2 subtype receptors obtained from M. Thibonnier (pZeoSV vector) are allowed to grow to confluency (approx. >90%) in T-150 flasks under sterile conditions, in a cell culture medium consisting of F-12 Nutrient Mixture (HAM) with L-glutamine (Gibco Cat. #11765-054) containing 15 mM HEPES (Gibco Cat. #15630-080), 1% antibiotic/antimycotic (add 5 mL 100×, Gibco Cat. #15240-062 per 500 mL F-12), 250 μg/mL Zeocin (add 1.25 mL of 100 mg/mL Invitrogen R-250-01 per 500 mL F-12) and 10% Fetal Bovine Serum (Qualified, heat inactivated, Gibco Cat. #16140-063). The medium is removed by aspiration and the cells washed with 10 mL of Hank's Balanced Salt solution (Gibco Cat. #14175-095). The salt solution is removed by aspiration and the cells trypsinized with 5 mL of trypsin-EDTA (0.05% trypsin, 0.53 mM EDTA-4Na, Gibco Cat. #25300-070) for 1 min. The trypsin is removed by aspiration and the cells dislodged by tapping. Cell Culture medium (e.g. 30 mL for 1:30 split) is immediately added and mixed well to inactivate trypsin. 1 mL of detached cells is added to new culture flasks containing fresh Cell Culture medium (e.g. into 25 mL per T-150 flask), and mixed gently. The cells are incubated at 37° C. in 5% CO2. The medium is changed at 3 to 4 day interval (or as appropriate). The cells grow to confluency (approx. >75%-95%) within 7-8 days. All steps are done under sterile conditions.
The cells are washed twice gently with Hank's Balanced Salt solution (e.g. use 10 mL per T-150 flask). The excess solution is removed and the cells bathed for 15-30 min. in an enzyme-free Cell Dissociation Buffer (e.g. use 8 mL Hank's Based, Gibco Cat. #13150-016 per T-150 flask) until cells are loosened. The contents are transferred to centrifuge tubes (50 mL) kept in an ice bath. All subsequent steps are done at 4° C. The tubes are centrifuged at 300×g for 15 min (1380 rpm on SORVAL, Model RT6000D, using the rotor for 50 mL tubes). The supernatant is discarded and the cells suspended in homogeneizing buffer(10 mM Tris-HCl containing 0.25 M sucrose and 1 mM EDTA, pH 7.4) ensuring that the volume of the buffer is about ten times the volume of the cell pellet. The cells are pooled into a centrifuge tube (50 mL) and homogenized with Polytron at setting 6 for 10 sec. The homogenate is transferred into a Potter-Elvjehm homogeneizer and homogenized with 3 strokes. The homogenate is centrifuged at 1500×g for 60 min at 4° C. (3100 rpm using SORVAL, model RT6000D, using the rotor for 50 mL tubes). The pellet is discarded. The supernatant is centrifuged at 100,000×g for 60 min. at 4° C. (Beckman L8-80M ultracentrifuge; spin at 37,500 rpm with rotor type 70 Ti for 50 mL tubes; 38,000 rpm with type 80 Ti for 15 mL tubes; or 35,800 rpm with rotor type 45Ti). The supernantant is discarded and the pellet suspended in 3 to 4 mL of Tris buffer (50 mM TRIS-HCl, pH 7.4). The protein content is estimated by the Bradford or Lowry method. The volume of the membrane suspension is adjusted with the membrane buffer (50 mM Tris-HCl containing 0.1% BSA and 0.1 mM PMSF) to give 3.0 mg/mL (or as appropriate) of protein. The membranes are aliquoted and stored at −70° C.
In wells of a 96-well format microtiter plate, is added 90, 110 or 130 μL (to make up a final volume of 200 μL) of assay buffer containing 50 mM of Tris-HCl (pH 7.4), […], 1 mg % aprotinin, 1 mg % leupeptin, 2 mg % 1,10-phenanthroline, 10 mg % trypsin inhibitor, and 0.1 mM PMSF. The inhibitors are added on the day of the experiment. The components are mixed at room temperature, and then kept in ice bath following adjustment of the pH to 7.4. […]
With Cc1cc(C(=O)N2Cc3ccc(C(=O)N4CCN(CCN(C)C)CC4)n3Cc3ccccc32)ccc1C1=CCCCC1 [Example 22, {10-[4-(1-Cyclohex-1-en-1-yl)-3-methylbenzoyl]-10,11-dihydro-5H-pyrrolo[2,1-c][1,4]benzodiazepin-3-yl}{4-[2-(dimethylamino)ethyl]-1-piperazinyl}methanone] the “V2 % inhibition @ 100 nM” value was 13%.
In the case of Cc1cc(C(=O)N2Cc3ccc(C(=O)NCCCn4ccnc4)n3Cc3ccccc32)ccc1C1=CCCCC1 [Example 18, 10-[4-(1-Cyclohex-1-en-1-yl)-3-methylbenzoyl]-N-[3-(1H-imidazol-1-yl)propyl]10,11-dihydro-5H-pyrrolo[2,1-c][1,4]benzodiazepine-3-carboxamide], the “V2 % inhibition @ 100 nM” value is reported as 20%.
Cc1cc(C(=O)N2Cc3ccc(C(=O)N4CCC[C@H]4CN4CCCC4)n3Cc3ccccc32)ccc1C1=CCCCC1 [Example 26, {10-[4-(1-Cyclohex-1-en-1-yl)-3-methylbenzoyl]-10,11-dihydro-5H-pyrrolo[2,1-c][1,4]benzodiazepin-3-yl}[(2S)-2-(1-pyrrolidinylmethyl)pyrrolidinyl]methanone] was tested, and the “V2 % inhibition @ 100 nM” value was 9%.
With Cc1cc(C(=O)N2Cc3ccc(C(=O)N4CCC(N5CCCC5)CC4)n3Cc3ccccc32)ccc1C1=CCCCC1 [Example 19, {10-[4-(1-Cyclohex-1-en-1-yl)-3-methylbenzoyl]-10,11-dihydro-5H-pyrrolo[2,1c][1,4]benzodiazepin-3-yl}[4-(1-pyrrolidinyl)-1-piperidinyl]methanone] the “V2 % inhibition @ 100 nM” value was 18%.
C=CCN1CCN(C(=O)c2ccc3n2Cc2ccccc2N(C(=O)c2ccc(C4=CCCCC4)c(C)c2)C3)CC1 [Example 24, (4-Allyl-1-piperazinyl){10-[4-(1-cyclohex-1-en-1-yl)-3-methylbenzoyl]-10,11-dihydro-5H-pyrrolo[2,1-c][1,4]benzodiazepin-3-yl}methanone] was tested, and the “V2 % inhibition @ 100 nM” value was 12%.
In the case of Cc1cc(C(=O)N2Cc3ccc(C(=O)N4CC[C@@H](N(C)C)C4)n3Cc3ccccc32)ccc1C1=CCCCC1 [Example 27, {10-[4-(1-Cyclohex-1-en-1-yl)-3-methylbenzoyl]-10,11-dihydro-5H-pyrrolo[2,1-c][1,4]benzodiazepin-3-yl}[(3R)-3-(dimethylamino)pyrrolidinyl]methanone], the “V2 % inhibition @ 100 nM” value is reported as 10%.
In the case of Cc1cc(C(=O)N2Cc3ccc(C(=O)N(C)CCCN(C)C)n3Cc3ccccc32)ccc1C1=CCCCC1 [Example 16, 10-[4-(1-Cyclohex-1-en-1-yl)-3-methylbenzoyl]-N-[3-(dimethylamino)propyl]-N-methyl-10,11-dihydro-5H-pyrrolo[2,1-c][1 ,4]benzodiazepine-3-carboxamide], the “V2 % inhibition @ 100 nM” value is reported as 10%.
For Cc1cc(C(=O)N2Cc3ccc(C(=O)NCCC4CCCN4C)n3Cc3ccccc32)ccc1C1=CCCCC1 (stereo not shown) [Example 21, 10-[4-(1-Cyclohex-1-en-1-yl)-3-methylbenzoyl]-N-[2-(1-methyl-2-pyrrolidinyl)ethyl]-10,11-dihydro-5H-pyrrolo[2,1-c][1,4]benzodiazepine-3-carboxamide], the “V2 % inhibition @ 100 nM” value was 11%.
CC1=C(c2ccc(C(=O)N3Cc4ccc(C(=O)N5CCN(C)CC5)n4Cc4ccccc43)cc2C)CCCC1O (stereo not shown) [Example 10, [4-(3-Hydroxy-2-methyl-cyclohex-1-en-1-yl)-3-methyl-phenyl]-[3-(4-methyl-piperazine-1carbonyl)-10,11-dihydro-5H-pyrrolo[2,1-c][1,4]benzodiazepin-10-yl]-methanone] gave an inhibition at 0.1 µM of -8%.

Same assay, conditions: value in parentheses
With COc1cc(C2=CCCCC2)c(Cl)cc1C(=O)N1Cc2ccc(C(=O)N(C)CCCN(C)C)n2Cc2ccccc21 [Example 3, 10-(5-Chloro-4-cyclohex-1-en-1-yl-2-methoxybenzoyl)-N-[3-(dimethylamino)propyl]-N-methyl-10,11-dihydro-5H-pyrrolo[2,1-c][1,4]benzodiazepine-3-carboxamide citric acid salt] the IC50 was 5.84 µM.
